The values that follow come from BindingDB's records for doi:10.1021/jm00067a003 (Upjohn Laboratories, 1993).

Molecules are shown by their SMILES.

For orientation: Ki means a measure of affinity in units of concentration, obtained from inhibition or displacement. High values mean weaker binding, low ones tighter binding.

This test concerns the target 5-hydroxytryptamine receptor 1A (Bos taurus). Description: Binding affinity at 5-hydroxytryptamine 1A receptor in bovine hippocampal preparation using [3H]8-OH-DPAT.

`CCCN(CC1CC1)[C@H]1CCc2ccc3[nH]c(C(N)=O)cc3c2C1` returned a Ki of 5.3 nM.
